According to the C3SDB collision cross section collection:
“And” between values parts separate entries of the source, which are not always exact repeats. Equal entries are not always repeated. Structures can show the parent of a compound that is named as a salt.

Columns and labels:
[1] = instrument: DT, single field, calibrated with ESI Low Concentration Tuning Mix (Agilent)
[2] = instrument: TW, calibrated with polyalanine and drug standards

Row | collision cross section (N2) ([1]; [M+Na]+) | collision cross section (N2) ([1]; [M-H]-) | collision cross section (N2) ([2]; [M+H]+) | SMILES | other results
1 | – | 125.7 Å² | – | Nc1cc(C(=O)O)ccc1[O-] [3-AMINO-4-HYDROXYBENZOATE] | collision cross section (N2) ([1]; [M+H]+): 139.6 Å²
2 | 131.9 Å² | 127.5 Å² | – | NC(CO)Cc1cnc[nH]1 (configuration not stated) [HISTIDINOL] | collision cross section (N2) ([1]; [M+H]+): 128.7 Å²
3 | – | 120.6 Å² | – | O=C(O)c1cccc(O)c1[O-] [2,3-DIHYDROXYBENZOATE] | –
4 | 129.5 Å² | 121.9 Å² | – | NC(=O)C[C@H](N)C(=O)O [ASPARAGINE] | –
5 | – | – | 154.4 Å² | O=C(N/N=C/c1ccc([N+](=O)[O-])o1)c1ccc(O)cc1 [NIFUROXAZIDE] | –
6 | – | – | 148.3 Å² | O=C1c2cccc(O)c2C(=O)c2c(O)cccc21 [DANTHRON] | –
7 | – | – | 145.9 Å² | CCOC(=O)c1ccc(N)cc1 [BENZOCAINE] | –
8 | – | – | 138.6 Å² | NC(=O)N/N=C/c1ccc([N+](=O)[O-])o1 [NITROFURAZONE] | –
9 | – | – | 125.6 Å² | NNC(=O)c1ccncc1 [ISONIAZID] | –
10 | – | – | 152.7 Å² | NC(=O)N1c2ccccc2CC(=O)c2ccccc21 [OXCARBAZEPINE] | –
11 | – | – | 193.3 Å² | CC(=O)Oc1ccc(C(c2ccc(OC(C)=O)cc2)c2ccccn2)cc1 [BISACODYL] | –
12 | – | – | 121.7 Å² | NC(=O)c1cccnc1 [NIACINAMIDE] | –
13 | – | – | 154.6 Å² | CCCCCCOc1ccccc1C(N)=O [EXALAMIDE] | –
14 | – | – | 169.1 Å² | O=C1C=CC(=C(c2ccc(O)cc2)c2ccc(O)cc2)C=C1 [ROSOLIC ACID] | –

More lines, now with the values behind:

Row | SMILES | collision cross section (N2) ([1]; [M+Na]+) | collision cross section (N2) ([1]; [M-H]-) | collision cross section (N2) ([2]; [M+H]+) | other results
15 | O=C(O)CCCC(=O)C(=O)O [OXOADIPATE] | 137.9 Å² | 126.5 Å² | – | collision cross section (N2) ([1]; [M+Na-2H]-): 132.2 Å²
16 | Cc1ncc(COP(=O)(O)O)c(C=O)c1O [PYRIDOXAL-PHOSPHATE] | 160.8 Å² | 149.4 Å² | – | collision cross section (N2) ([1]; [M+H]+): 151.3 Å²; collision cross section (N2) ([1]; [M+Na-2H]-): 153.2 Å²
17 | NCCCNCCCCNCCCN [SPERMINE] | 151.5 Å² | – | – | collision cross section (N2) ([1]; [M+H]+): 148.6 Å²
18 | O=c1nc[nH]c2c1ncn2[C@@H]1O[C@H](CO)[C@@H](O)[C@H]1O [INOSINE] | 170.8 Å² | 158.2 Å² | – | collision cross section (N2) ([1]; [M+K]+): 170.2 Å²
19 | O=C(O)[C@H](O)[C@@H](O)[C@H](O)[C@H](O)CO [GLUCONATE] | 146.2 Å² and 146.3 Å² | 132.4 Å² | – | –
20 | O=C(O)[C@@H](O)[C@H](O)[C@H](O)[C@@H](O)C(=O)O [GALACTARATE] | 146.9 Å² | 132.6 Å² | – | collision cross section (N2) ([1]; [M+Na-2H]-): 137.2 Å²
21 | NC(=O)CC[C@H](N)C(=O)O [GLUTAMINE] | – | 127.3 Å² | – | collision cross section (N2) ([1]; [M+H]+): 130.9 Å²
22 | NCC(N)C(=O)O (configuration not stated) [2,3-DIAMINOPROPIONATE] | – | 118.2 Å² | – | collision cross section (N2) ([1]; [M+H]+): 138.1 Å²
23 | OC[C@H]1O[C@H](O[C@H]2[C@H](O)[C@@H](O)[C@H](O)O[C@@H]2CO)[C@H](O)[C@@H](O)[C@@H]1O [MALTOSE] | 178.9 Å² | 180.1 Å² | – | collision cross section (N2) ([1]; [M+K]+): 181.7 Å²
24 | C[C@H](O)[C@H](O)C1=Nc2c([nH]c(N)nc2=O)NC1 [DIHYDROBIOPTERIN] | – | – | – | collision cross section (N2) ([1]; [M+H]+*): 153.9 Å²; collision cross section (N2) ([1]; [M+Na]+*): 157.2 Å²
25 | OC[C@@H](O)C(O)[C@@H](O)CO (some centres not stated) [XYLITOL] | 135.4 Å² | 124.8 Å² | – | –
26 | O=CC[C@H](O)[C@H](O)CO [DEOXYRIBOSE] | 134.3 Å² | – | – | –
27 | Nc1nc(=O)c2ncn([C@@H]3O[C@H](COP(=O)(O)OP(=O)(O)O[C@H]4O[C@H](CO)[C@@H](O)[C@H](O)[C@@H]4O)[C@@H](O)[C@H]3O)c2[nH]1 [GUANOSINE DIPHOSPHATE MANNOSE] | 222.3 Å² | 209 Å² | – | collision cross section (N2) ([1]; [M+H]+): 227.4 Å²; collision cross section (N2) ([1]; [M+Na-2H]-): 205.5 Å² and 217.2 Å²
28 | O=C(O)C(O)COP(=O)(O)O (configuration not stated) [3-PHOSPHOGLYCERATE] | 139.4 Å² | 124.4 Å² | – | collision cross section (N2) ([1]; [M+H]+): 136.1 Å²; collision cross section (N2) ([1]; [M+Na-2H]-): 133 Å² and 141.6 Å²
29 | O=C(O)CCCCCCCCCCCO [OMEGA-HYDROXYDODECANOATE] | 160.3 Å² | 152.6 Å² | – | –
30 | COC1=C(OC)C(=O)C(C/C=C(\C)CC/C=C(\C)CC/C=C(\C)CC/C=C(\C)CC/C=C(\C)CC/C=C(\C)CC/C=C(\C)CC/C=C(\C)CC/C=C(\C)CCC=C(C)C)=C(C)C1=O [COENZYME Q10] | 306.6 Å² | – | – | –
31 | NC(N)=N[C@@H](CC(=O)O)C(=O)O [GUANIDINOSUCCINATE] | 148 Å² | 130.2 Å² | – | collision cross section (N2) ([1]; [M+H]+): 136.8 Å²; collision cross section (N2) ([1]; [M+Na-2H]-): 147 Å²
32 | OCC(O)c1ccc(O)c(O)c1 (configuration not stated) [3,4-DIHYDROXYPHENYLGLYCOL] | – | – | – | collision cross section (N2) ([1]; [M-H2O-H]-): 127.5 Å²
33 | O=C/C=C/c1ccccc1 [TRANS-CINNAMALDEHYDE] | – | – | – | collision cross section (N2) ([1]; [M+H]+): 121.5 Å²
34 | O=C(O)c1ccc2ccccc2n1 [2-QUINOLINECARBOXYLATE] | – | – | – | collision cross section (N2) ([1]; [M+H]+): 132 Å²
35 | C[N+](C)(C)CC(=O)[O-] [BETAINE] | – | – | – | collision cross section (N2) ([1]; [M+K]+): 130.5 Å²
36 | O=C(O)CP(=O)(O)O [PHOSPHONOACETATE] | 134.5 Å² | – | – | –
37 | O=C(O)Cc1ccc(O)c(O)c1 [3,4-DIHYDROXYPHENYLACETATE] | – | – | – | collision cross section (N2) ([1]; [M+Na-2H]-): 139.9 Å²

Row | SMILES | collision cross section (N2) ([1]; [M+Na]+) | collision cross section (N2) ([1]; [M-H]-) | collision cross section (N2) ([2]; [M+H]+) | other results
38 | C[C@@H]1OC(O)[C@@H](O)[C@H](O)[C@@H]1O (some centres not stated) [FUCOSE] | 138.7 Å² | – | – | –
39 | CC(=O)[C@H]1CC[C@H]2[C@@H]3CC=C4C[C@@H](OS(=O)(=O)O)CC[C@]4(C)[C@H]3CC[C@]12C [PREGNENOLONE SULFATE] | – | 206.2 Å² | – | –
40 | CN(CC(=O)O)/C(N)=N/P(=O)(O)O [PHOSPHOCREATINE] | – | – | – | collision cross section (N2) ([1]; [M+H]+): 144.6 Å² and 144.8 Å²; collision cross section (N2) ([1]; [M+Na-2H]-): 142.7 Å² and 142.8 Å²
41 | CC(=O)NCCCC(=O)O [4-ACETAMIDOBUTANOATE] | 135.7 Å² | 130.8 Å² | – | –
42 | CCCCCCCCCCCCCCCCC(C(=O)O)C(O)(CC(=O)O)C(=O)O (configuration not stated) [AGARIC ACID] | – | – | – | collision cross section (N2) ([2]; [M+Na]+): 213.1 Å²
43 | COc1cc2c(cc1O)CCNC2C (configuration not stated) [SALSOLINE] | – | – | 145.8 Å² | –
44 | CN1[C@@H]2CC[C@H]1CC(OC(=O)[C@H](CO)c1ccccc1)C2 (some centres not stated) [HYOSCYAMINE] | – | – | 169.7 Å² | –
45 | CC(=O)O[C@]1(C(C)=O)CC[C@H]2[C@@H]3C=C(Cl)C4=CC(=O)CC[C@]4(C)[C@H]3CC[C@@]21C [CHLORMADINONE ACETATE] | – | – | 197 Å² | –
46 | CC1(C)CC2C1CCC1(C)OC1CCC2(C)O (configuration not stated) [2-HYDROXY-5 (6)EPOXY-TETRAHYDROCARYOPHYLLENE] | – | – | – | collision cross section (N2) ([2]; [M+H-H2O]+): 150.8 Å²
47 | CC[C@H]1OC(=O)[C@H](C)[C@@H](O[C@H]2C[C@@](C)(OC)[C@@H](O)[C@H](C)O2)[C@H](C)[C@@H](O[C@@H]2O[C@H](C)C[C@H](N(C)C)[C@H]2O)[C@](C)(O)C[C@@H](C)CN(C)[C@H](C)[C@@H](O)[C@]1(C)O [AZITHROMYCIN] | – | – | 263.5 Å² | –
48 | COc1ccc(-c2cc(=O)c3c(O)c(OC)c(O[C@@H]4O[C@H](CO[C@@H]5O[C@@H](C)[C@H](O)[C@@H](O)[C@H]5O)[C@@H](O)[C@H](O)[C@H]4O)cc3o2)cc1 [PECTOLINARIN] | – | – | 236.5 Å² | –
49 | C=C[C@H]1CN2CC[C@H]1C[C@H]2[C@H](O)c1ccnc2ccccc12 [CINCHONIDINE] | – | – | 168.2 Å² | –
50 | O=C(CCCN1CCC(O)(c2ccc(Br)cc2)CC1)c1ccc(F)cc1 [BROMPERIDOL] | – | – | 194.9 Å² | –
51 | CC(=O)OC1CC[C@@]2(C)C(CC[C@H]3[C@@H]4CC=C(C(C)=O)[C@@]4(C)C(=O)C[C@@H]32)C1 (some centres not stated) [3-ACETOXYPREGN-16-EN-12,20-DIONE] | – | – | 189.5 Å² | –
52 | CC(C)=CCCC1(C)C=Cc2c(O)c3c(c(CC=C(C)C)c2O1)OC12C(CC4CC1C(C)(C)OC2(C/C=C(/C)C(=O)O)C4O)C3=O (configuration not stated) [TETRAHYDROGAMBOGIC ACID] | – | – | 246.4 Å² | –
53 | CC(=O)[C@H]1CC[C@H]2[C@@H]3CCC4=CC(=O)CC[C@]4(C)[C@H]3CC[C@]12C [PROGESTERONE] | – | – | 177.8 Å² | –
54 | COc1c2ccoc2c(OC)c2oc(=O)ccc12 [ISOPIMPINELLIN] | – | – | 146.5 Å² | –
55 | C[C@@H]1C[C@H]2[C@@H]3C[C@H](F)C4=CC(=O)C=C[C@]4(C)[C@@]3(F)[C@@H](O)C[C@]2(C)[C@@]1(O)C(=O)CO [FLUMETHASONE] | – | – | 189.2 Å² | –
56 | C=C1C2CC[C@@]3(C)[C@H](c4ccoc4)OC(=O)C[C@]13O[C@H]1CC(O)C(C)(C)C(CC(=O)OC)[C@@]21C (stereo partly drawn) [3alpha-HYDROXY-3-DEOXYANGOLENSIC ACID METHYL ESTER] | – | – | 204.6 Å² | –
57 | C/C=C1\[C@H]2C=C(C)C[C@]1(N)c1ccc(=O)[nH]c1C2 [HUPERZINE A] | – | – | 157.7 Å² | –
58 | CNc1ccccc1C(=O)O [N-METHYLANTHRANILIC ACID] | – | – | 125.9 Å² | –
59 | C=C(C)c1cc2cc(C(C)=O)c(O)cc2o1 [EUPARIN] | – | – | 143.2 Å² | –
